Data from US20100129432A1, “MICROORGANISM-KILLING COMBINATION” (TAIPEI MEDICAL UNIVERSITY, priority 2008, published 2010).

Experiments:
[1] = system: Candida albicans; assay: Toluidine blue or Methylene Blue mediated PDI with or without 0.6% chitosan, survival fraction; settings: for PDI effect (survival fraction): 0.5 mM photosensitizer, 630±5 nm LED 50 J/cm^2, without chitosan; for survival fraction of Candida albicans: 0.6% (w/v) chitosan added after the PDI, 50 J/cm^2
[2] = system: Staphylococcus aureus (BCRC 10780); assay: Rose Bengal, Methylene Blue and Chlorin e6 mediated PDI with or without chitosan, survival fraction; assay type: cell-based

With `CN(C)c1ccc2nc3ccc(=[N+](C)C)cc-3sc2c1` [MB, methylene blue] the “PDI effect (survival fraction)” value [1] was “partially effective”, the “survival fraction of Candida albicans” value [1] was “greatly reduced” and the “PDI effect (survival fraction)” value ([2]; 2 μM MB, 0 J/cm^2, without chitosan) was “ineffective”. The “PDI effect (survival fraction)” value ([2]; 2 μM MB, 0.025% (w/v) chitosan) was “significantly enhanced”, the “PDI effect (survival fraction)” value ([2]; 2 μM MB, 0.025% (w/v) chitosan, 10-20 J/cm^2) was “complete eradication” and the “PDI effect (survival fraction)” value ([2]; 2 μM MB, 5 J/cm^2, without chitosan) was “slightly effective”. For the same compound, the “PDI effect (survival fraction)” value ([2]; 2 μM MB, 10-20 J/cm^2, without chitosan) was “apparently more effective than the lower dose”.

For `O=C1OC2(c3cc(I)c(O)c(I)c3Oc3c2cc(I)c(O)c3I)c2c(Cl)c(Cl)c(Cl)c(Cl)c21` [RB, Rose Bengal], the “PDI effect (survival fraction)” value ([2]; 0.025 μM RB, 25 J/cm^2, 0.025% chitosan) was “complete removal of the bacteria” and the “PDI effect (survival fraction)” value ([2]; 0.025 μM RB, 25 J/cm^2, without chitosan) was “not able to result in complete eradication”.

`Cc1cc2nc3ccc(N(C)C)cc3[s+]c2cc1N.[Cl-]` [TB, toluidine blue] was tested, and the “PDI effect (survival fraction)” value [1] was “partially effective” and the “survival fraction of Candida albicans” value [1] was “greatly reduced”.

In the case of chlorine e6 [Ce6], the “PDI effect (survival fraction)” value ([2]; 0.05 μM Ce6, 0.1% (w/v) chitosan, 10 J/cm^2) is reported as “complete eradication” and the “PDI bacterial killing effect” value ([2]; 0.05 μM Ce6 with chitosan, concentration dependent manner (0.01-0.1 μM)) is reported as “significantly enhance”.
